Reference: PMC10826971, “Evaluating protein cross-linking as a therapeutic strategy to stabilize SOD1 variants in a mouse model of familial ALS” (PLOS Biology, 2024)

Experiments:
[1] = MTT cell viability/cytotoxicity assay; format: cell-based; settings: human, Hep G2 cells
Method: The Hep G2 human hepatocarcinoma cell line (American Type Culture Collection, ATCC, Manassas, Virginia, USA) was cultured using EMEM (Eagle’s minimal essential medium, ATCC) supplemented with 10% FBS (fetal bovine serum, ATCC) and 1% penicillin streptomycin as previously described (10,000 units/mL penicillin and 10,000 μg/mL streptomycin, Fisher scientific, Hampton, New Hampshire, USA). The cells were grown and subcultured around 72 h at 37°C, 5% CO2 under controlled humidity. The cells growth and morphology were inspected using an inverted Carl Zeiss microscope (Carl Zeiss Microscopy LLC, White Plains, New York, USA).
Using manufacturer’s instructions, Hep G2 cells were cultured for 24 h with a density of 2 × 10^5 cells/mL in a 96-well culture plate at 37°C, 5% CO2 under controlled humidity. […] Cell cytotoxicity was performed via the MTT (3-(4,5-dimethylthiazol-2-yl)-2,5-diphenyltetrazolium bromide) assay at 570 nm absorbance using BioTek synergy H1 (Vermont, USA) plate reader according to previously published paper. The MTT stock was made at 5 mg/mL using 0.9% sodium chloride solution which was purchased from Sigma Aldrich (St. Louis, Missouri, USA). Twenty-four hours after dosing the plate, the cultured medium was aspirated and replaced with the equal volume of MTT solution (10× dilution using EMEM complete media). The plate was incubated for 4 h (37°C, 5% CO2). The MTT solution was replaced by the equal amount of acidified isopropanol (0.3% hydrochloric acid (v/v)) and then formed formazan was dissolved by shaking the plate gently for 30 min. The absorbance was measured at 570 nm for both the samples and acidified isopropanol for background calculation. Chlorpromazine and cells with 0.1% DMSO were used as positive control and vehicle, respectively. The cell viability of each concentration was measured by normalizing against mean value of cells with 0.1% DMSO (vehicle).

wild-type SOD1 = wild-type SOD1 (Homo sapiens, UniProt P00441); test: SOD1 cross-linking in Hep G2 cells, SDS-PAGE and western blot; format: cell-based; settings: Hep G2 cells in PBS buffer, 30 min
Method: The Hep G2 human hepatocarcinoma cell line (American Type Culture Collection, ATCC, Manassas, Virginia, USA) was cultured using complete EMEM (Eagle’s minimal essential medium, ATCC) media including 10% FBS (fetal bovine serum, ATCC) and 1% penicillin streptomycin (10,000 units/mL penicillin and 10,000 μg/mL streptomycin, Fisher Scientific, Hampton, New Hampshire, USA). Cells were counted and checked for morphology using an inverted Carl Zeiss microscope (Carl Zeiss Microscopy LLC, White Plains, New York, USA). A 96-well plate (Corning Life Sciences, Tewksbury, Massachusetts, USA) was used for culturing cells at 0.2 mill/mL concentration for 24 h at 37°C, 5% CO2 under controlled humidity for western blot experiment. […] Wild-type SOD1 purified from human erythrocyte (Sigma Aldrich, St. Louis, Missouri, USA) was used as positive control (standard) in the experiment. The growth buffer was aspirated and replaced with 30 μL of lysis buffer (150 mM NaCl, 1% Triton X-100, 0.5% sodium deoxycholate, 0.1% SDS, and 50 mM Tris (pH 8.0), all chemicals were purchased from Sigma Aldrich (St. Louis, Missouri, USA)) and incubated for 10 min followed by addition of non-reducing sample buffer. […]

[2] = test system: alpha 1-acid glycoprotein; format: in vitro ADME
SOD1^A4V = molecular target: T1, SOD1^A4V (Homo sapiens, UniProt P00441, A5V); test: Differential scanning fluorimetry (DSF), thermal stability; format: binding
T1 construct: made in house; host or cells: EGy118ΔSOD1 yeast, YEp351 expression vector
Method: To understand how cross-linking effects SOD1 stability, we quantified changes in unfolding temperature (ΔTu, hereafter thermal stability).
The effect of cross-link formation on the thermal stability of SOD1 was determined by differential scanning fluorimetry as previously described. […] After incubation, SYPRO Orange (Invitrogen Corporation, Carlsbad, California, USA), an environmentally sensitive fluorescent dye which is quenched in an aqueous environment but becomes unquenched once it binds hydrophobic residues, was added to the reaction mixture to a final concentration of 200×. The samples were then transferred to a fast optical 96-well reaction plate (Applied Biosystem, Life Technologies Corporation, Carlsbad, California, USA) and loaded on to the real-time PCR machine (Applied Biosystem, Life Technologies Corporation, Carlsbad, California, USA) after plate was spun down to eliminate bubbles. The Melt curve template in StepOne Plus software was used to set up a method. […] The final concentration of DMSO in the reaction mixture was checked as it contributes to the denaturation of proteins. Dilutions were performed accordingly to maintain the final concentration of DMSO less than 1% (vol/vol). All samples were run in technical triplicates. The background data was subtracted from the average relative fluorescence and average derivate for each temperature point, and the data were normalized before Tus were quantified by averaging the negative first derivative of relative fluorescence of all 3 runs and identifying the local minima.

T1 sequence (P00441 2-154 A5V limits assumed): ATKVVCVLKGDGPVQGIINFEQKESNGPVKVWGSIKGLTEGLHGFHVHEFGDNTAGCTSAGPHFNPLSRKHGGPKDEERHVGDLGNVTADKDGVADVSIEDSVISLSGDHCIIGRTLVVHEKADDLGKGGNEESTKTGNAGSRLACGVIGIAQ
Chain of wild-type SOD1 (P00441 2-154 limits assumed): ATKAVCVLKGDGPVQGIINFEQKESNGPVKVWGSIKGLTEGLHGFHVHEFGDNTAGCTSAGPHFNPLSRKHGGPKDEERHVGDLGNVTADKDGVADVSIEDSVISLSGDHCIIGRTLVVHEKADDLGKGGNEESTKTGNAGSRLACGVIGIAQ

[O-][S+]1CCCCS1 (stereo not shown) [S-XL6, 1,2-dithiane-1-oxide]
viability at 24 h, 10 µM ([1]; 10 µM, read-out: viable cells compared to vehicle control (MTT)): 125% | viability at 24 h, 100 µM ([1]; 100 µM, read-out: viable cells compared to vehicle control (MTT)): 102% | viability at 24 h, 150 µM ([1]; 150 µM, read-out: viable cells compared to vehicle control (MTT)): 90% | viability at 24 h, 250 µM ([1]; 250 µM, read-out: viable cells compared to vehicle control (MTT)): 79% | viability at 24 h, 400 µM ([1]; 400 µM, read-out: viable cells compared to vehicle control (MTT)): 72% | viability at 24 h, 600 µM ([1]; 600 µM, read-out: viable cells compared to vehicle control (MTT)): 15% | viability at 24 h, 800 µM ([1]; 800 µM, read-out: viable cells compared to vehicle control (MTT)): 14% | viability at 24 h, 1000 µM ([1]; 1000 µM, read-out: viable cells compared to vehicle control (MTT)): 14% | CC50 at 24 h ([1]; MTT, read-out: Cytotoxicity LC50): ~446 µM | EC50 (wild-type SOD1): ~5 µM | binding to purified protein [2]: not bound | unfolding temperature (Tu) of S-XL6 cross-linked protein (SOD1^A4V; 10-fold molar excess S-XL6, 4 h 37°C, untreated 62.9°C): 79.3 °C | Normalized ROX (SOD1^A4V; SOD1 (A4V) + S-XL6, Avg. Temp 88.559): 0.8246 | Normalized ROX (SOD1^A4V; SOD1 (A4V) + S-XL6, Avg. Temp 88.8631): 0.8068 | Normalized ROX (SOD1^A4V; SOD1 (A4V) + S-XL6, Avg. Temp 89.1556): 0.7806 | Normalized ROX (SOD1^A4V; SOD1 (A4V) + S-XL6, Avg. Temp 89.4509): 0.7704 | Normalized ROX (SOD1^A4V; SOD1 (A4V) + S-XL6, Avg. Temp 89.7543): 0.7528 | Normalized ROX (SOD1^A4V; SOD1 (A4V) + S-XL6, Avg. Temp 90.0524): 0.7438 | Normalized ROX (SOD1^A4V; SOD1 (A4V) + S-XL6, Avg. Temp 90.3511): 0.7281 | Normalized ROX (SOD1^A4V; SOD1 (A4V) + S-XL6, Avg. Temp 90.6551): 0.7134 | Normalized ROX (SOD1^A4V; SOD1 (A4V) + S-XL6, Avg. Temp 90.9595): 0.6972 | Normalized ROX (SOD1^A4V; SOD1 (A4V) + S-XL6, Avg. Temp 91.2522): 0.6869 | Normalized ROX (SOD1^A4V; SOD1 (A4V) + S-XL6, Avg. Temp 91.5534): 0.6765 | Normalized ROX (SOD1^A4V; SOD1 (A4V) + S-XL6, Avg. Temp 91.844): 0.6607 | Normalized ROX (SOD1^A4V; SOD1 (A4V) + S-XL6, Avg. Temp 92.1549): 0.6557 | Normalized ROX (SOD1^A4V; SOD1 (A4V) + S-XL6, Avg. Temp 92.4505): 0.6388 | Normalized ROX (SOD1^A4V; SOD1 (A4V) + S-XL6, Avg. Temp 92.7501): 0.6357 | Normalized ROX (SOD1^A4V; SOD1 (A4V) + S-XL6, Avg. Temp 93.0577): 0.6246 | Normalized ROX (SOD1^A4V; SOD1 (A4V) + S-XL6, Avg. Temp 93.3585): 0.6123 | Normalized ROX (SOD1^A4V; SOD1 (A4V) + S-XL6, Avg. Temp 93.6532): 0.6065 | Normalized ROX (SOD1^A4V; SOD1 (A4V) + S-XL6, Avg. Temp 93.9591): 0.6047 | Normalized ROX (SOD1^A4V; SOD1 (A4V) + S-XL6, Avg. Temp 94.2561): 0.5946 | Normalized ROX (SOD1^A4V; SOD1 (A4V) + S-XL6, Avg. Temp 94.5503): 0.5850 | Normalized ROX (SOD1^A4V; SOD1 (A4V) + S-XL6, Avg. Temp 94.8582): 0.5820
